In article PMC10298275, “Antiproliferative Activity and Impact on Human Gut Microbiota of New O-Alkyl Derivatives of Naringenin and Their Oximes” (International Journal of Molecular Sciences, 2023):
Converted amounts (≈) assume the structure as drawn. Like-named read-outs stand apart in the source and are kept apart here.

What was measured:
[1] = tested on: caspase 3/7 in HT-29 cells; experiment: Caspase-Glo 3/7 Assay; format: cell-based, human; conditions: HT-29, 50 µg/mL, measured at 6, 12, 24 and 48 h
Experimental: The activity of two effector caspases 3 and 7 was analyzed using the Caspase-Glo 3/7 Assay (Promega) according to the recommendations of the manufacturer. The cells were seeded at a density of 1 × 10^4 per well for the test on a 96-well plate. Then, cells were incubated with A2, B2, A9, B9 and NG at a concentration of 50 µg/mL for 48 h. Half an hour before each measurement of caspase activity, an equal volume of Caspase-Glo 3/7 substrate solution was added to cells. The luminescence signals were detected using a GloMax Discover Microplate Reader at the 6th, 12th, 24th and 48th hours of the experiment. The reactions for each sample were repeated in triplicate and presented as the mean value.

Escherichia coli K12 [2] = experiment: MBC assay; format: cell-based; conditions: E. coli K12
Experimental: (§1) The minimum bactericidal concentration (MBC) was tested for all naringenin derivatives. First, 10 µL of medium was taken from the plate, on which the MIC was determined for the MIC value, the value below and the two values above. This volume was transferred to TSA or MC agar. After 18–24 h (depending on strain) incubation at 37 °C, colonies were counted. The concentration of test compounds at which no bacterial growth was observed was defined as the MBC value. Each experiment was repeated 3 times.

[3] = tested on: Staphylococcus aureus ATCC 25923; experiment: MBC assay; format: cell-based; conditions: Staphylococcus aureus, ATCC25923; S. aureus ATCC 25923; read-out: MBC
Experimental: as §1

[4] = tested on: Enterococcus faecalis ATCC 29212; experiment: MBC assay; format: cell-based; conditions: Enterococcus faecalis, ATCC29212; E. faecalis ATCC 29212; read-out: MBC
Experimental: as §1

SRB assay, cytotoxicity [5] = format: cell-based, mouse; conditions: mouse, 3T3-L1 cells; 3T3-L1, SRB, 24 h exposure, three independent repeats; read-out: Cytotoxicity (IC50 ± SD)
Experimental: (§2) The HT-29 cells (ATCC, Manassas, VA, USA) were cultured within α-MEM (IIET PAS, Wrocław, Poland) supplemented with 10% fetal bovine serum (Sigma, St. Louis, MO, USA), antimycotic (100 μg/mL penicillin, 100 μg/mL streptomycin and 0.25 μg/mL amphotericin) (Sigma) and 2 mM glutamine (Sigma). The 3T3-L1 cells (ATCC, Manassas, VA, USA) were cultivated using DMEM high-glucose medium (IIET PAS, Wrocław, Poland) supplemented as above. Both cell lines were cultured at 37 °C in an atmosphere of 5% CO2.
(§3) The sulforhodamine B (SRB) assay was performed according to a previously published protocol. Briefly, 1 × 10^4 HT-29 or 5 × 10^3 3T3-L1 cells were seeded into 96-well plates. After attaching to the plate surface, the cells were incubated with 100, 75, 50, 25, 10 or 1 µg/mL of the investigated compounds for 24 h. After this time, proteins were precipitated with trichloroacetic acid and stained with SRB. The absorbance was measured at 560 nm using a GloMax Discover Microplate Reader (Promega, Madison, WI, USA).

Escherichia coli K12 [6] = experiment: MIC, microdilution method; format: cell-based; conditions: E. coli K12, MHB, 18 h, 37 °C, tested 512 to 1 µg/mL
Experimental: (§4) Non-pathogenic reference strains representing the intestinal microbiome were used for the studies: Escherichia coli K12, Staphylococcus aureus ATCC 25923 and Enterococcus faecalis ATCC 29212. All strains were obtained from the collection of the Department of Microbiology at the Medical University of Wrocław.
(§5) The strains were received from the museum (−80 °C) and grown in tryptic soy broth (TSB, OXOID, Basingstoke, UK) under continuous shaking conditions (MaxQTM6000 incubator shaker, Thermo Scientific, Waltham, MA, USA) at 125 rpm at 37 °C. Then, they were moved to the growth media, namely tryptic soy agar (TSA, OXOID, Basingstoke, UK) and MacConkey agar (MC, Millipore, Darmstadt, Germany) for S. aureus or E. faecalis and E. coli, respectively.
(§6) A fresh 18–24 h culture was used for each study. For this purpose, a culture with a density of 1.5 × 10^8 CFU/mL in Mueller–Hinton broth (MHB, OXOID, Basingstoke, UK) was prepared and used for further microdilution studies.
(§7) The antimicrobial activity of the O-alkyl derivatives of naringenin and their oximes was tested in vitro using the microdilution method, showing the minimum inhibitory concentration (MIC), in accordance with the recommendations of the European Antimicrobial Susceptibility Testing Committee EUCAST [44]. MICs were determined in 96-well microdilution plates. The tests were carried out in MHB medium. The O-alkyl derivatives of naringenin and their oximes were tested in the concentration range of 512 to 1 µg/mL in a geometric process in MHB medium. The final concentration of the test strains in each test well was 5 × 10^5 CFU/mL. MICs were read after 18 h (for E. coli and S. aureus) and 24 h (for E. faecalis) incubation at 37 °C.
(§8) A strain growth control (tested strain in medium), background control for tested compounds (naringenin derivatives in MHB), medium control (only pure MHB) and compound solvent control (DMSO at test compound concentration, strain and MHB) were set for each experiment. Each test was set up with three independent experiments, each as three separate replicates.
(§9) The […], OD600, was measured in a plate reader (ASYS UVM340, BIOCHROM Ltd., Cambridge, UK). The background control of the tested compounds and the clean medium were included in the absorbance results.

[7] = tested on: Staphylococcus aureus ATCC 25923; experiment: MIC, microdilution method; format: cell-based; conditions: S. aureus ATCC 25923, MHB, 18 h, 37 °C, tested 512 to 1 µg/mL
Experimental: as §4, §5, §6, §7, §8, §9

[8] = tested on: Enterococcus faecalis ATCC 29212; experiment: MIC, microdilution method; format: cell-based; conditions: E. faecalis ATCC 29212, MHB, 24 h, 37 °C, tested 512 to 1 µg/mL
Experimental: as §4, §5, §6, §7, §8, §9

SRB assay, cytotoxicity [9] = format: cell-based, human; conditions: human, HT-29 cells; HT-29, SRB, 24 h exposure, three independent repeats; read-out: Cytotoxicity (IC50 ± SD)
Experimental: as §2, §3

HT-29 cells [10] = experiment: RealTime-Glo Annexin V Apoptosis and Necrosis Assay; format: cell-based, human; conditions: HT-29, during 12 h incubation, applied concentrations 10-100 µg/mL
Experimental: The process of apoptosis was determined using the RealTime-Glo Annexin V Apoptosis and Necrosis Assay (Promega) according to the manufacturer’s protocol. Briefly, 1 × 10^4 HT-29 cells were seeded into a single well of a 96-well plate. After overnight incubation, the cells were treated with 10, 25, 50 and 100 µg/mL of the investigated compounds and detection reagent for 24 h. As a negative control, untreated cells were used. The luminescence, fluorescence and OD525 signals were detected at each hour of the first 12 h of incubation. The end measurement was performed at the 24th hour of the experiment. All samples were prepared in triplicate, and then their means were calculated.

HT-29 cells [11] = experiment: MTT assay, cell viability; format: cell-based, human; conditions: HT-29, highest concentration 100 µg/mL, 24 h
Experimental: as §2
First, 1 × 10^4 HT-29 cells or 5 × 10^3 3T3-L1 cells were seeded into a 96-well plate and incubated for one night. Then, cells were treated with different concentrations of the investigated compounds within 24 h. Afterwards, the medium was replaced with a fresh medium containing 0.5 mg/mL of 3-(4,5-dimethylthiazol-2-yl)-2,5-diphenyl-2H-tetrazolium bromide (MTT, Sigma) and incubated for 2 h at 37 °C. After removing the medium, the formazan salts were dissolved in dimethyl sulfoxide (DMSO, Sigma), and the absorbance of the solution was measured at 560 nm using a plate reader.

HT-29 cells [12] = experiment: SRB assay, cytotoxicity; format: cell-based, human; conditions: HT-29, SRB, up to 100 µg/mL
Experimental: as §2, §3

[13] = Escherichia coli, read-out: MBC
[14] = Escherichia coli, read-out: MIC
[15] = Staphylococcus aureus, ATCC25923, read-out: MIC
[16] = Enterococcus faecalis, ATCC29212, read-out: MIC

SMILES | MIC (Escherichia coli K12 [6]) [µg/mL] | MIC (Escherichia coli K12 [6]; [14]) [µg/mL] | MIC [7, 15] [µg/mL] | MIC [8, 16] [µg/mL] | MIC [7] | MIC [8] | melting point [°C] | caspase 3/7 activation [1] | MBC (Escherichia coli K12 [2]) [µg/mL] | MBC (Escherichia coli K12 [2]; [13]) [µg/mL] | MBC [3] [µg/mL] | MBC [4] [µg/mL] | IC50 at 24 h (SRB assay, cytotoxicity [5]) [µg/mL] | IC50 at 24 h (SRB assay, cytotoxicity [9]) [µg/mL] | annexin V luminescence and necrosis fluorescence signals versus untreated cells (HT-29 cells [10]) | effect on colon adenocarcinoma cells (viability, MTT) (HT-29 cells [11]) | effect on the proliferation of the HT-29 cell line (HT-29 cells [12])
CCCCCCCCCCCOc1ccc([C@@H]2CC(=O)c3c(O)cc(OCCCCCCCCCCC)cc3O2)cc1 [A10, 7,4′-Di-O-undecylnaringenin] | – | > 512 | 256 (≈ 441 µM) | 32 (≈ 55.1 µM) | – | – | 63 to 64 | – | – | > 512 | > 512 | > 512 | > 100 | > 100 | – | weak | no effect on the proliferation
CCCCCCCCCOc1ccc([C@@H]2CC(=O)c3c(O)cc(OCCCCCCCCC)cc3O2)cc1 [A8, 7,4′-Di-O-nonylnaringenin] | – | > 512 | 512 (≈ 976 µM) | 512 (≈ 976 µM) | 512 (>512) µg/mL | 512 (>512) µg/mL | 70 to 71 | – | – | > 512 | > 512 | > 512 | > 100 | > 100 | – | weak | no effect on the proliferation
CCCCCCCOc1ccc([C@@H]2CC(=O)c3c(O)cc(OCCCCCCC)cc3O2)cc1 [A4, 7,4′-Di-O-heptylnaringenin] | – | > 512 | > 512 | 32 (≈ 68.3 µM) | >512 (>512) µg/mL | – | 74 to 75 | – | – | > 512 | > 512 | > 512 | > 100 | > 100 | – | weak | no effect on the proliferation

Now from value to compound, other results behind:

MIC (Escherichia coli K12 [6]) [µg/mL] | MIC (Escherichia coli K12 [6]; [14]) [µg/mL] | MIC [7, 15] [µg/mL] | MIC [8, 16] [µg/mL] | MIC [7] | MIC [8] | melting point [°C] | SMILES | caspase 3/7 activation [1] | MBC (Escherichia coli K12 [2]) [µg/mL] | MBC (Escherichia coli K12 [2]; [13]) [µg/mL] | MBC [3] [µg/mL] | MBC [4] [µg/mL] | IC50 at 24 h (SRB assay, cytotoxicity [5]) [µg/mL] | IC50 at 24 h (SRB assay, cytotoxicity [9]) [µg/mL] | annexin V luminescence and necrosis fluorescence signals versus untreated cells (HT-29 cells [10]) | effect on colon adenocarcinoma cells (viability, MTT) (HT-29 cells [11]) | effect on the proliferation of the HT-29 cell line (HT-29 cells [12])
512 (≈ 1880 µM) | 512 (≈ 1880 µM) | 512 (≈ 1880 µM) | > 512 | – | – | – | O=C1C[C@@H](c2ccc(O)cc2)Oc2cc(O)cc(O)c21 [NG, naringenin] | neither membrane switching of phosphatidylserine nor caspase activation was observed | > 512 | > 512 | > 512 | > 512 | > 100 | > 100 | both signals were similar to those for untreated cells | weak | –
– | > 512 | > 512 | 64 (≈ 145 µM) | >512 (>512) µg/mL | – | – | CCCCCCOc1ccc([C@@H]2CC(=O)c3c(O)cc(OCCCCCC)cc3O2)cc1 [A2, 7,4′-di-O-hexylnaringenin] | neither membrane switching of phosphatidylserine nor caspase activation was observed | – | > 512 | > 512 | > 512 | > 100 | > 100 | both signals were similar to those for untreated cells | weak | –
– | > 512 | > 512 | > 512 | – | >512 (>512) µg/mL | – | CCCCCCOc1ccc([C@@H]2CC(=NO)c3c(O)cc(OCCCCCC)cc3O2)cc1 [B2, 7,4′-di-O-hexylnaringenin oxime] | neither membrane switching of phosphatidylserine nor caspase activation was observed | – | > 512 | > 512 | > 512 | 10.1 ± 6.49 (≈ 22.1 µM) | 49.8 ± 1.63 (≈ 109 µM) | both signals were similar to those for untreated cells | – | –
– | > 512 | > 512 | 512 (≈ 1200 µM) | >512 (>512) µg/mL | 512 (>512) µg/mL | 103 to 104 | CCCCCCCCCCCOc1cc(O)c2c(c1)O[C@H](c1ccc(O)cc1)CC2=O [A9, 7-O-Undecylnaringenin] | significant caspase 3/7 activation was also detected | – | > 512 | > 512 | > 512 | 10.2 ± 0.2 (≈ 23.8 µM) | 17.9 ± 0.65 (≈ 41.8 µM) | both signals were similar to those for untreated cells | completely inhibited | –
